Data from US9745310B2 (SK BIOPHARMACEUTICALS CO., LTD., priority 2015, dated 2017).

Molecular target: human mGluR5 receptor (Homo sapiens (Human), UniProt P41594)
Assay: Calcium influx assay based on fluorescence (mGluR5 PAM activity)
Conditions: human mGluR5 receptor-overexpressed HEK293 cell line; L-glutamate EC20; Fluo-4, FLIPR
Method: Efficacy as a positive allosteric modulator (PAM) of mGluR5 of the compounds of the Examples was tested as follows:
Calcium Influx Assay Based on Fluorescence
Ca^2+ (calcium) influx assay is an experiment for measuring the activity of a positive allosteric modulator of mGluR5 receptor in which human mGluR5 receptor-overexpressed HEK293 cell line is used. The day before the experiment, cells were prepared in a cell culture medium (DMEM, 5% FBS) with the density of 80,000/well, and 100 μl of cells were dispensed into each well of a poly-D-lysine-coated 96-well plate. Cells were incubated in a 5% CO2, 37° C. incubator. The next day, the cell culture medium was removed from the plate, and 100 μl of 1× Fluo-4 calcium indicator diluted with a buffer (1× Hank's balanced salt solution, 20 mM HEPES, 2.5 mM probenecid) were added to each well and incubated at 37° C. for 1 hour. The compound stock solutions were prepared in 100% DMSO, and the compounds were serially diluted with a ¼ dilution to 6 or 7 concentrations (final concentration was 10 μM to 10 nM). The diluted compound solutions were added to the plate with 0.1 to 0.2% of final DMSO concentration. 1 hour after the addition of Fluo-4 calcium indicator, L-glutamate (EC20 concentration) and the test compound solutions were added to the plate, and Ca^2+ reaction was then measured by FLIPR at room temperature. The activity of the compounds was standardized on the basis of the results of maximum value-minimum value of fluorescent reaction, and the activity value was calculated on the basis that no activity on glutamate EC20 is 0% and the reaction to glutamate maximum value is 100%.

Chain of human mGluR5 receptor (P41594 21-1212): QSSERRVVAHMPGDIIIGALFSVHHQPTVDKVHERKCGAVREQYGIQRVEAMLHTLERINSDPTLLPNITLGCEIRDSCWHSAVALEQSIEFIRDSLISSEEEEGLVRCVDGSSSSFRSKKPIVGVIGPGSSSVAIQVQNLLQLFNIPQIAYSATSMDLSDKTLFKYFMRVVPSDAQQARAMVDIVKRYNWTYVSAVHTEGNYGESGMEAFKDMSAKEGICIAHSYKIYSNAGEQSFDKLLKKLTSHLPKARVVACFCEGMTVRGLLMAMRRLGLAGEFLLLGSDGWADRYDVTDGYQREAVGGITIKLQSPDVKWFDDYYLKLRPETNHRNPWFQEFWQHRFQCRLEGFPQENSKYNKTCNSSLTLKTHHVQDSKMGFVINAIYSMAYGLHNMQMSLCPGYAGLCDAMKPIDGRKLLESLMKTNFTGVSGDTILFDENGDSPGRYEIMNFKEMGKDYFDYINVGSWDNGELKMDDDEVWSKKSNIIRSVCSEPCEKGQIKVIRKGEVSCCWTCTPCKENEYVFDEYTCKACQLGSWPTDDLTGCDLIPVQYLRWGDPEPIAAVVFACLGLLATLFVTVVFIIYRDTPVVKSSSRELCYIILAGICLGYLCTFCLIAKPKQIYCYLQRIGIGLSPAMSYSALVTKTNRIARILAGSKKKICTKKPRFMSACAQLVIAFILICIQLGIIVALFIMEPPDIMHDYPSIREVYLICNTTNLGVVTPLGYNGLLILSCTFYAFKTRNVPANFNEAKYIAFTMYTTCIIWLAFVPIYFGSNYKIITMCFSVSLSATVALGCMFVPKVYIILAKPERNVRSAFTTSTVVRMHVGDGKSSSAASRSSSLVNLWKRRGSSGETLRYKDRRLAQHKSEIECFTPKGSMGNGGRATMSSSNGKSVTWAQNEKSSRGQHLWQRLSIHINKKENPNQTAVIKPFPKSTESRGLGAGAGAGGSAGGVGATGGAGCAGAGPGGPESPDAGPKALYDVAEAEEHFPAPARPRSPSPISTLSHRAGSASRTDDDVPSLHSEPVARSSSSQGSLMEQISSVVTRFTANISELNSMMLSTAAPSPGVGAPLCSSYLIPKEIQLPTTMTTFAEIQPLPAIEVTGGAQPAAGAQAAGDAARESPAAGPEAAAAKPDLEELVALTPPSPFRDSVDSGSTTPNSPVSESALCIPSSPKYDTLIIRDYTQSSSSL

| Structure (SMILES) | EC50 [nM] |
| --- | --- |
| Fc1ccc(OCc2cn3cc(-c4ccc(F)cc4F)cnc3n2)cc1 [Example 47, 6-(2,4-difluorophenyl)-2-(4-fluorophenoxymethyl)imidazo[1,2-a]pyrimidine] | 100 to 500 |
| Fc1ccnc(OCc2cn3cc(-c4cccc(F)c4F)cnc3n2)c1 [Example 122, 6-(2,3-difluorophenyl)-2-[(4-fluoro-2-pyridyl)oxymethyl)imidazo[1,2-a]pyrimidine] | 500 to 1000 |
| Fc1ncccc1-c1cnc2nc(COc3ccccc3)cn2c1 [Example 29, 6-(2-fluoropyridin-3-yl)-2-phenoxymethylimidazo[1,2-a]pyrimidine] | 100 to 500 |
| OCc1cc(F)ccc1-c1cnc2nc(COc3ccc(F)cn3)cn2c1 [Example 139, [5-fluoro-2-[2-[(5-fluoro-2-pyridyl)oxymethyl]imidazo[1,2-a]pyrimidin-6-yl]phenyl]methanol] | 500 to 1000 |
| Fc1cccc(OCc2cn3cc(-c4ccnc(F)c4)cnc3n2)c1 [Example 79, 2-[(3-fluorophenoxy)methyl]-6-(2-fluoro-4-pyridyl)imidazo[1,2-a]pyrimidine] | 100 to 500 |
| Fc1ccc(OCc2cn3cc(-c4ccc(F)cc4C(F)(F)F)cnc3n2)nc1 [Example 119, 2-[(5-fluoro-2-pyridyl)oxymethyl]-6-[4-fluoro-2-(trifluoromethyl)phenyl]imidazo[1,2-a]pyrimidine] | 100 to 500 |
| Nc1cc(F)ccc1-c1cnc2nc(COc3ccccc3)cn2c1 [Example 27, 6-(2-amino-4-fluorophenyl)-2-phenoxymethylimidazo[1,2-a]pyrimidine] | 100 to 500 |
| Oc1ccc(-c2cnc3nc(COc4ccc(F)cc4)cn3c2)cn1 [Example 90, 5-[2-[(4-fluorophenoxy)methyl]imidazo[1,2-a]pyrimidin-6-yl]pyridin-2-ol] | 100 to 500 |
| COc1cc(C#N)ccc1-c1cnc2nc(COc3ccccc3)cn2c1 [Example 23, 6-(4-cyano-2-methoxyphenyl)-2-phenoxymethylimidazo[1,2-a]pyrimidine] | 100 to 500 |
| Clc1ccc(-c2cnc3nc(COc4ccccc4)cn3c2)cn1 [Example 34, 6-(6-chloropyridin-3-yl)-2-phenoxymethylimidazo[1,2-a]pyrimidine] | 100 to 500 |
| Fc1ccc(-c2cnc3nc(COc4cc(F)ccn4)cn3c2)cc1 [Example 123, 6-(4-fluorophenyl)-2-[(4-fluoro-2-pyridyl)oxymethyl)imidazo[1,2-a]pyrimidine] | 100 to 500 |
| CCc1ccccc1-c1cnc2nc(COc3ccccn3)cn2c1 [Example 115, 6-(2-ethylphenyl)-2-(2-pyridyloxymethyl)imidazo[1,2-a]pyrimidine] | 100 to 500 |
| N#Cc1ccc(-c2cnc3nc(COc4ccccn4)cn3c2)cc1 [Example 140, 4-[2-(2-pyridyloxymethyl)imidazo[1,2-a]pyrimidin-6-yl]benzonitrile] | 100 to 500 |
| COc1ccc(-c2cnc3nc(COc4ccc(F)cc4)cn3c2)nc1 [Example 86, 2-[(4-fluorophenoxy)methyl]-6-(5-methoxy-2-pyridyl)imidazo[1,2-a]pyrimidine] | 100 to 500 |
| COc1cc(F)ccc1-c1cnc2nc(COc3ccnc(F)c3)cn2c1 [Example 163, 6-(4-fluoro-2-methoxyphenyl)-2-(2-fluoropyridin-4-yloxymethyl)imidazo[1,2-a]pyrimidine] | 100 to 500 |
| Fc1ccc(-c2cnc3nc(COc4ccncc4)cn3c2)c(F)c1 [Example 152, 6-(2,4-difluorophenyl)-2-(pyridin-4-yloxymethyl)imidazo[1,2-a]pyrimidine] | 100 to 500 |
| Fc1ccc(-c2cnc3nc(COc4ccccn4)cn3c2)c(C(F)(F)F)c1 [Example 113, 6-[4-fluoro-2-(trifluoromethyl)phenyl]-2-(2-pyridyloxymethyl)imidazo[1,2-a]pyrimidine] | 100 to 500 |

| Structure (SMILES) | EC50 [nM] |
| --- | --- |
| Fc1ccc(-c2cnc3nc(COc4cccc(F)c4)cn3c2)cc1 [Example 54, 2-[(3-fluorophenoxy)methyl]-6-(4-fluorophenyl)imidazo[1,2-a]pyrimidine] | 100 to 500 |
| Oc1cc(F)ccc1-c1cnc2nc(COc3ccc(F)cc3)cn2c1 [Example 58, 5-fluoro-2-[2-[(4-fluorophenoxy)methyl]imidazo[1,2-a]pyrimidin-6-yl]phenol] | 100 to 500 |
| Fc1ccnc(OCc2cn3cc(-c4ccc(F)cc4C(F)(F)F)cnc3n2)c1 [Example 125, 2-[(4-fluoro-2-pyridyl)oxymethyl]-6-[4-fluoro-2-(trifluoromethyl)phenyl]imidazo[1,2-a]pyrimidine] | 100 to 500 |
| Cc1ccc(-c2cnc3nc(COc4ccc(F)cn4)cn3c2)c(C)c1 [Example 128, 6-(2,4-dimethylphenyl)-2-[(5-fluoro-2-pyridyl)oxymethyl)imidazo[1,2-a]pyrimidine] | 500 to 1000 |
| COCc1cc(F)ccc1-c1cnc2nc(COc3ccccn3)cn2c1 [Example 141, 6-[4-fluoro-2-(methoxymethyl)phenyl]-2-(2-pyridyloxymethyl)imidazo[1,2-a]pyrimidine] | 100 to 500 |
| O=Cc1ccc(-c2cnc3nc(COc4ccccn4)cn3c2)c(C(F)(F)F)c1 [Example 144, 4-[2-(2-pyridyloxymethyl)imidazo[1,2-a]pyrimidin-6-yl]-3-(trifluoromethyl)benzaldehyde] | 500 to 1000 |
| Cc1c(F)cccc1-c1cnc2nc(COc3ccccn3)cn2n1 [Example 187, 2-(3-fluoro-2-methyl-phenyl)-6-(2-pyridyloxymethyl)imidazo[1,2-b][1,2,4]triazine] | 100 to 500 |
| Fc1ccc(OCc2cn3cc(-c4ccc(F)cc4CCl)cnc3n2)cc1 [Example 197, 6-[2-(chloromethyl)-4-fluoro-phenyl]-2-[(4-fluorophenoxy)methyl)imidazo[1,2-a]pyrimidine] | 100 to 500 |
| Fc1ccc(-c2cnc3nc(COc4cccc(F)c4)cn3c2)nc1 [Example 93, 2-[(3-fluorophenoxy)methyl]-6-(5-fluoro-2-pyridyl)imidazo[1,2-a]pyrimidine] | 100 to 500 |
| Oc1ccccc1-c1cnc2nc(COc3ccnc(F)c3)cn2c1 [Example 169, 6-(2-hydroxyphenyl)-2-(2-fluoropyridin-4-yloxymethyl)imidazo[1,2-a]pyrimidine] | 100 to 500 |
| COc1cc(C#N)ccc1-c1cnc2nc(COc3ccc(F)cc3)cn2c1 [Example 68, 4-[2-[(4-fluorophenoxy)methyl]imidazo[1,2-a]pyrimidin-6-yl]-3-methoxy-benzonitrile] | 100 to 500 |
| Fc1ccc(-c2cnc3nc(COc4ccccc4)cn3c2)c(Cl)c1 [Example 15, 6-(2-chloro-4-fluorophenyl)-2-phenoxymethylimidazo[1,2-a]pyrimidine] | 100 to 500 |
| Nc1cc(-c2cnc3nc(COc4ccc(F)cc4)cn3c2)ccc1F [Example 70, 2-fluoro-5-[2-[(4-fluorophenoxy)methyl]imidazo[1,2-a]pyrimidin-6-yl]aniline] | 100 to 500 |
| Fc1ccc(OCc2cn3cc(-c4ccc(F)cn4)cnc3n2)cc1 [Example 85, 2-[(4-fluorophenoxy)methyl]-6-(5-fluoro-2-pyridyl)imidazo[1,2-a]pyrimidine] | 100 to 500 |
| COc1cc(F)ccc1-c1cnc2nc(COc3cncc(F)c3)cn2c1 [Example 155, 6-(4-fluoro-2-methoxyphenyl)-2-(5-fluoropyridin-3-yloxymethyl)imidazo[1,2-a]pyrimidine] | 100 to 500 |
| Cc1ccccc1-c1cnc2nc(COc3ccc(F)cn3)cn2c1 [Example 126, 2-[(5-fluoro-2-pyridyl)oxymethyl]-6-(o-tolyl)imidazo[1,2-a]pyrimidine] | 100 to 500 |
